Laboratory results from BigSolDB 2.1.

O=P(NCc1ccccc1)(Oc1ccccc1)Oc1ccccc1
solubility (mole fraction)
Settings | in THF | in acetone | in acetonitrile | in chloroform | in dichloromethane | in ethyl acetate | in methanol | in methyl acetate | in toluene
288.15 K | – | – | – | 0.095 | 0.055 | – | – | 0.0168 | –
293.15 K | 0.0978 | 0.0447 | 0.0148 | 0.109 | 0.0724 | 0.0199 | 0.0111 | 0.0234 | 0.0109
298.15 K | 0.115 | 0.0587 | 0.0196 | 0.126 | 0.0965 | 0.0279 | 0.0158 | 0.0309 | 0.016
303.15 K | 0.132 | 0.0741 | 0.0264 | 0.143 | 0.126 | 0.0368 | 0.0231 | 0.0407 | 0.0228
308.15 K | 0.157 | 0.0986 | 0.0344 | 0.164 | 0.157 | 0.0484 | 0.0322 | 0.055 | 0.0312
313.15 K | 0.183 | 0.122 | 0.0431 | 0.191 | – | 0.0627 | 0.0449 | 0.0699 | 0.0428
318.15 K | 0.208 | 0.154 | 0.0591 | 0.218 | – | 0.0824 | 0.0629 | 0.094 | 0.0574
323.15 K | 0.24 | 0.198 | 0.0742 | 0.248 | – | 0.104 | 0.0875 | 0.122 | 0.0814
328.15 K | – | – | 0.0948 | 0.275 | – | 0.137 | 0.125 | – | 0.108
333.15 K | – | – | 0.122 | – | – | 0.182 | 0.166 | – | 0.146
338.15 K | – | – | 0.155 | – | – | – | – | – | 0.187
343.15 K | – | – | – | – | – | – | – | – | 0.243
